According to patent publication US8907093B2, “Carboxylic acid derivatives having an oxazolo[4,5-c]pyridine ring” (Sanofi, priority 2011, dated 2014):

Target: T1, human Edg 1 receptor (Homo sapiens, UniProt P21453)
T1 construct: FLAG (N); expressed in transfected cells; membrane preparation
Assay: GTP-γ-S assay using human Edg 1 receptors (scintillation proximity assay, CHO Flp-In membrane preparation)
Format: biochemical
Conditions: test compound at 10 μM; [35S]GTP-γ-S binding; membranes of CHO Flp-In cells overexpressing human Edg 1
Text: A) GTP-γ-S assay using human Edg 1 receptors
In order to determine the Edg 1 receptor activation by the compounds of the invention, a GTP-γ-S ((GTP-γ-S=guanosine 5′-[thio]triphosphate) assay for G-protein coupled receptor binding based on the scintillation proximity assay principle was used, employing a cell membrane preparation from a CHO Flp-In cell line which constitutively overexpresses the human Edg 1 receptor.
A membrane preparation was obtained by standard methods from the afore-described CHO Flp-In cell line constitutively overexpressing the human Edg 1 receptor. Briefly, the cryopreserved cells were taken in culture and grown until confluency in T175 cell culture flasks (Becton Dickinson, cat. no. 35 5001). […] Protein concentration of the membrane preparation was determined in a sample by means of a commercial protein assay (Bio-Rad, DC Protein Assay, cat. nos. 500-0113, 500-0114, 500-0115).
The Edg 1 membrane preparation obtained in (b) was employed in a commercially available scintillation proximity assay (SPA) kit for G-protein coupled receptor binding from Amersham Biosciences/GE Healthcare (code RPNQ0210), in which ligand-induced binding of ^35S-radiolabeled GTP-γ-S to the receptor-containing membrane, which is bound to scintillation beads, stimulates the emission of light and allows to quantify the in vitro activity of the Edg 1 agonistic compound. […]

T1 sequence (P21453 whole entry): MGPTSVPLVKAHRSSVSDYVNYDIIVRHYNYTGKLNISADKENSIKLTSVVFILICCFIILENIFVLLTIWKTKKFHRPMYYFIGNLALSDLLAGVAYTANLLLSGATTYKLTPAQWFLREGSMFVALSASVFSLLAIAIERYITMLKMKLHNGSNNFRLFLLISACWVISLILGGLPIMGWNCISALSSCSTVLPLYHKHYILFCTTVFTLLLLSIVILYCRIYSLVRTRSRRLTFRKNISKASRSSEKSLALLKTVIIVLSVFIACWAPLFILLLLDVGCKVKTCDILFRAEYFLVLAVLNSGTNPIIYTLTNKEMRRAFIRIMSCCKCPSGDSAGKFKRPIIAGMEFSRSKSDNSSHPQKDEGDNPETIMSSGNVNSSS

SMILES: Cc1cc(-c2nc3cnc(Oc4ccccc4F)cc3o2)cc(C)c1OCC(=O)O [Example 1, {4-[6-(2-Fluorophenoxy)oxazolo[4,5-c]pyridin-2-yl]-2,6-dimethylphenoxy}acetic acid]
- receptor activation in percent of the respective high control (10 μM S1P, regarded as 100% activation): 86%
